Experimental findings from patent US20120208781A1, “AMINOGLYCOSIDE DOSING REGIMENS” (Achaogen, Inc., priority 2009, published 2012) are described below.

The MIC50 is an inhibitory concentration at the 50% level, which refers to growth in some studies and to a panel of isolates in others. What is called MIC90 is the lowest concentration that inhibits either 90% of growth or 90% of the strains tested, depending on the study. A low value points to higher susceptibility. For orientation: NOAEL means the highest tested level that showed no adverse finding.

The test system of data set [1] is S. aureus (SA). The experiment in a line: MIC, CLSI broth microdilution, worldwide isolates: S. aureus. The data set is classed as cell-based. The source says: In the first study, a total of 235 isolates were collected from medical centers worldwide and tested for susceptibility to Compound 1 and comparator agents by CLSI broth microdilution methods. […] Non-ENT GN pathogens included WT P. aeruginosa (PSA) and Acinetobacter spp. (ACB), and carbapenem (CARB)-R strains, including those with MBL and OXA enzymes, SA and coagulase-negative staphylococci (CoNS) included oxacillin-susceptible (MSSA/MS-CoNS) and —R (MRSA/MR-CoNS) strains.
Minimum inhibitory concentrations (MIC) were determined by reference Clinical and Laboratory Standards Institute (CLSI) broth microdilution methods per M7-A7 [2006]. Briefly, serial two-fold dilutions of Compound 1 and comparator AGs (together, “the test compounds”) were prepared at 2× concentration in appropriate diluent. The dilutions were mixed in 96-well assay plates with bacterial inoculum. Bacteria were suspended in sterile saline and added to each assay plate to obtain a final concentration of 5.5×10^5 CFU/mL. The plates were incubated at 35° C. for 20 hours in ambient air. […] After incubation, assay plates were read using a microtiter plate reader at 600 nm.
In general terms: In broth dilution the organism is exposed to a series of concentrations in liquid medium.

The test system of data set [2] is P. aeruginosa (PA). Briefly: MIC, broth microdilution, Brooklyn hospital isolates: P. aeruginosa. Type of data set: cell-based. Particulars: Pseudomonas aeruginosa; PA (n = 33). Here is the method:
In another study, the activity of Compound 1 against a collection of contemporary Gram-negative bacteria was determined. Unique patient isolates of P. aeruginosa (PA), A. baumannii (AB), K. pneumoniae (KP), E. coli (EC), and Enterobacter spp. (EB) from prior surveys at 16 Brooklyn, N.Y. hospitals were selected based on resistance patterns. The majority of isolates were fingerprinted by automated ribotyping. MICs were performed by broth microdilution. PCR was used to identify aminoglycoside-modifying enzymes (AMEs) in AB and KP and the KPC gene in Enterobacteriaceae (EN). The expression of the efflux genes mexA, C, E and X in PA, and adeB in AB was assessed by real-time RT-PCR.

Data set [3] deals with cochlear function, vestibular function. The experiment in a line: First-in-human phase 1 study: cochlear and vestibular function (ototoxicity). Type of data set: in vivo. Particulars: healthy volunteers. Here is the method: Safety evaluation was based on clinical observations, vital sign measurements, laboratory tests, physical examination, electrocardiogram, cochlear function, vestibular function testing, and reported adverse events. Cochlear function was evaluated by pure tone audiometry with bone conduction and otoacoustic emission (OAE) testing. Vestibular function was evaluated by electronystagmography (ENG) and Dynamic Visual Acuity (DVA) test. Laboratory tests included complete blood count (CBC), serum chemistries, and urinalysis. BUN and creatinine (Cr) were assessed daily on dosing days to allow the Investigator to monitor renal function. Results were used as criteria for dose escalation. The glomerular filtration rate (GFR) was estimated using iothalamate plasma measurements before dosing and after the multiple dose periods. GFR was also assessed by Cr clearance before dosing and after the multiple dose periods.
Complete physical examinations and ECGs were completed at screen and 2 days after the last multiple-dose. Abbreviated physical examinations were completed prior to the single-dose and prior to the first multiple-dose (those receiving IMP for 10 days have an additional examination prior to the 6th multiple-dose infusion). Vital signs were assessed at screen and all visits during treatment period. Additional safety assessments, including pure tone audiometry and ENG caloric, testing was performed or will be performed at 3 and 6 months after the last dose. Concomitant therapies and adverse events are assessed throughout the screen and treatment period.

The nature of data set [4]: GLP 14-day repeat-dose safety study in dog. The data set is classed as in vivo. An excerpt:
The guidance states that the MRSD must be derived from the no observable adverse effect level (NOAEL) obtained in Good Laboratory Practice (GLP) nonclinical animal safety studies. […] Estimation of the human equivalent dose (HED) at the NOAEL is based on both a surface area conversion factor (SACF) and the data from these studies.

The nature of data set [5]: GLP 14-day repeat-dose safety study in rat. The data set is classed as in vivo. The source says: The Food and Drug Administration (FDA) has provided general guidance for estimating the maximum recommended starting dose (MRSD) for initial human clinical trials. The guidance states that the MRSD must be derived from the no observable adverse effect level (NOAEL) obtained in Good Laboratory Practice (GLP) nonclinical animal safety studies. The NOAEL for Compound 1 has been determined in GLP 14-day repeat-dose safety studies in both rat and dog. Estimation of the human equivalent dose (HED) at the NOAEL is based on both a surface area conversion factor (SACF) and the data from these studies. Based on this standard methodology, the HED for the predicted NOAEL in each species has been determined and is presented in Table 18.

Setting [6] is: Staphylococcus aureus, SA isolates.

In brackets after ≈: the same amount, converted by molar mass.

Consider `CN[C@@H]1[C@@H](O)[C@@H](O[C@@H]2[C@@H](O)[C@H](O[C@H]3OC(CNCCO)=CC[C@H]3N)[C@@H](N)C[C@H]2NC(=O)[C@@H](O)CCN)OC[C@]1(C)O` [Compound 1, 6′-(2-Hydroxy-ethyl)-1-(4-amino-2(S)-hydroxy-butyryl)-sisomicin], for which the “Cumulative % inhibited at Cmpd. MIC 1” value was determined as 96.7% in data set [1] (SA (30)); 100.0% in data set [1] (SA, MRSA (20)); 90.0% in data set [1] (SA, MSSA (10)). The “Cumulative % inhibited at Cmpd. MIC 2” value was found to be 100.0% in data set [1] (SA (30)) and 100.0% in data set [1] (SA, MSSA (10)). The “Cumulative % inhibited at Cmpd. MIC ≦0.5” value is 66.7% in data set [1] (SA (30)); 60.0% in data set [1] (SA, MRSA (20)); 80.0% in data set [1] (SA, MSSA (10)). Also, the MIC50 in data set [1] (setting [6]) is at most 0.25 µg/mL; in data set [2], 8 µg/mL (≈ 13.5 µM). Further, the MIC90 in data set [1] (setting [6]) came out at 0.5 µg/mL (≈ 0.844 µM); in data set [2] it was 16 µg/mL (≈ 27 µM). Further, the “cochlear function (pure tone audiometry, bone conduction, OAE)” value in data set [3] is given as “did not reveal any treatment related effects”. The ototoxicity signal result in data set [3] was “No ototoxocity signal”. Moreover, the “vestibular function (ENG and DVA)” value in data set [3] was “did not reveal any treatment related effects”. Also, the NOAEL at 14 days in data set [4] (dog, in vivo) turned out to be 3 mg/kg; in data set [5] (rat, in vivo) it was 8 mg/kg. For the same compound, the HED in data set [4] (from dog NOAEL, SACF 1.8) is recorded as 1.7 mg/kg; in data set [5] (from rat NOAEL, SACF 6.2), 1.3 mg/kg. Also, the “new toxicities” value in data set [4] (nonclinical GLP safety studies in dogs) and in data set [5] (nonclinical GLP safety studies in rats) was “no new toxicities apart from those already known to the class” each time. Further, in data set [4] (nonclinical GLP studies in dogs), the “cardiac or respiratory safety signals” value is given as “no cardiac or respiratory safety signals”.
